Experimental data reported in PubChem BioAssay (NCI).
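Interpolation was linear, between the two tested concentrations surrounding the appropriate level; five concentrations were tested over 48 hours in 96-well plates. GI50 is the concentration that inhibits growth by half. TGI: concentration producing complete growth inhibition.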

Tests used:
Test in all cases: growth of human tumour cells (NCI), 48 h; in the data active = GI50 below about 0.43 µM; inactive = the rest
DU-145 prostate = tested on: DU-145 prostate
T-47D breast = tested on: T-47D breast
HCT-116 colon = tested on: HCT-116 colon
UACC-257 melanoma = tested on: UACC-257 melanoma
HCT-15 colon = tested on: HCT-15 colon
KM12 colon = tested on: KM12 colon
HL-60(TB) leukemia = tested on: HL-60(TB) leukemia
RPMI-8226 leukemia = tested on: RPMI-8226 leukemia
NCI-H460 lung = tested on: NCI-H460 lung
SK-MEL-28 melanoma = tested on: SK-MEL-28 melanoma
PC-3 prostate = tested on: PC-3 prostate
UO-31 renal = tested on: UO-31 renal
ACHN renal = tested on: ACHN renal
A549 NSCLC = tested on: A549 NSCLC
SF-539 CNS = tested on: SF-539 CNS
U251 CNS = tested on: U251 CNS
NCI-H226 lung = tested on: NCI-H226 lung
MDA-MB-231 breast = tested on: MDA-MB-231 breast
MOLT-4 leukemia = tested on: MOLT-4 leukemia
MDA-MB-435 = tested on: MDA-MB-435
M14 melanoma = tested on: M14 melanoma
SN12C renal = tested on: SN12C renal
IGROV1 ovarian = tested on: IGROV1 ovarian
SK-MEL-5 melanoma = tested on: SK-MEL-5 melanoma
EKVX NSCLC = tested on: EKVX NSCLC
RXF 393 renal = tested on: RXF 393 renal
SNB-75 CNS = tested on: SNB-75 CNS
SK-OV-3 ovarian = tested on: SK-OV-3 ovarian
SNB-19 CNS = tested on: SNB-19 CNS
NCI-H522 lung = tested on: NCI-H522 lung
HS 578T breast = tested on: HS 578T breast
OVCAR-4 ovarian = tested on: OVCAR-4 ovarian
HOP-62 NSCLC = tested on: HOP-62 NSCLC
OVCAR-5 ovarian = tested on: OVCAR-5 ovarian
786-0 renal = tested on: 786-0 renal
SK-MEL-2 melanoma = tested on: SK-MEL-2 melanoma
UACC-62 melanoma = tested on: UACC-62 melanoma
SF-295 CNS = tested on: SF-295 CNS
SR leukemia = tested on: SR leukemia
K-562 leukemia = tested on: K-562 leukemia
OVCAR-8 ovarian = tested on: OVCAR-8 ovarian
OVCAR-3 ovarian = tested on: OVCAR-3 ovarian
LOX IMVI melanoma = tested on: LOX IMVI melanoma
BT-549 breast = tested on: BT-549 breast
SW-620 colon = tested on: SW-620 colon
SF-268 CNS = tested on: SF-268 CNS
CAKI-1 renal = tested on: CAKI-1 renal
COLO 205 colon = tested on: COLO 205 colon
TK-10 renal = tested on: TK-10 renal
A498 renal = tested on: A498 renal
HOP-92 NSCLC = tested on: HOP-92 NSCLC
HCC-2998 colon = tested on: HCC-2998 colon
CCRF-CEM leukemia = tested on: CCRF-CEM leukemia
MALME-3M melanoma = tested on: MALME-3M melanoma
NCI-H23 lung = tested on: NCI-H23 lung
HT29 colon = tested on: HT29 colon
MCF7 breast = tested on: MCF7 breast

C[C@@H]1O[C@@H](O[C@@H]2[C@@H](O)[C@H](OCCc3ccc(O)c(O)c3)O[C@H](CO)[C@H]2OC(=O)/C=C/c2ccc(O)c(O)c2)[C@H](O)[C@H](OC2OC[C@](O)(CO)[C@H]2O)[C@H]1O (stereo not given in full)
90.1 µM: TGI (UACC-257 melanoma)
40 µM: TGI (OVCAR-8 ovarian)
inactive: GI50 (DU-145 prostate) 16.9 µM | GI50 (T-47D breast) > 100 µM | GI50 (HCT-116 colon) 30.4 µM | GI50 (UACC-257 melanoma) 27 µM | GI50 (HCT-15 colon) > 100 µM | GI50 (KM12 colon) > 100 µM | GI50 (HL-60(TB) leukemia) > 100 µM | GI50 (RPMI-8226 leukemia) 34.9 µM | GI50 (NCI-H460 lung) > 100 µM | GI50 (SK-MEL-28 melanoma) > 100 µM | GI50 (PC-3 prostate) 7.41 µM | GI50 (UO-31 renal) > 100 µM | GI50 (ACHN renal) > 100 µM | GI50 (A549 NSCLC) > 100 µM | GI50 (SF-539 CNS) > 100 µM | GI50 (U251 CNS) > 100 µM | GI50 (NCI-H226 lung) > 100 µM | GI50 (MDA-MB-231 breast) > 100 µM | GI50 (MOLT-4 leukemia) > 100 µM | GI50 (MDA-MB-435) 17.5 µM | GI50 (M14 melanoma) > 100 µM | GI50 (SN12C renal) > 100 µM | GI50 (IGROV1 ovarian) > 100 µM | GI50 (SK-MEL-5 melanoma) > 100 µM | GI50 (EKVX NSCLC) 63.9 µM | GI50 (RXF 393 renal) 72 µM | GI50 (SNB-75 CNS) > 100 µM | GI50 (SK-OV-3 ovarian) > 100 µM | GI50 (SNB-19 CNS) > 100 µM | GI50 (NCI-H522 lung) > 100 µM | GI50 (HS 578T breast) > 100 µM | GI50 (OVCAR-4 ovarian) > 100 µM | GI50 (HOP-62 NSCLC) > 100 µM | GI50 (OVCAR-5 ovarian) > 100 µM | GI50 (786-0 renal) 84.7 µM | GI50 (SK-MEL-2 melanoma) 52.6 µM | GI50 (UACC-62 melanoma) > 100 µM | GI50 (SF-295 CNS) > 100 µM | GI50 (SR leukemia) > 100 µM | GI50 (K-562 leukemia) 58.5 µM | GI50 (OVCAR-8 ovarian) 18.7 µM | GI50 (OVCAR-3 ovarian) 35 µM | GI50 (LOX IMVI melanoma) 19.4 µM | GI50 (BT-549 breast) 12 µM | GI50 (SW-620 colon) 22.7 µM | GI50 (CAKI-1 renal) 24.8 µM | GI50 (COLO 205 colon) > 100 µM | GI50 (TK-10 renal) > 100 µM
34.6 µM: TGI (MDA-MB-435)
53.4 µM: TGI (SF-268 CNS)
42.5 µM: TGI (CAKI-1 renal)
52.8 µM: TGI (SW-620 colon)
65.4 µM: TGI (HCT-116 colon)
27.2 µM: TGI (BT-549 breast)
> 100 µM: TGI (T-47D breast) | TGI (HCT-15 colon) | TGI (KM12 colon) | TGI (HL-60(TB) leukemia) | TGI (RPMI-8226 leukemia) | TGI (NCI-H460 lung) | TGI (SK-MEL-28 melanoma) | TGI (PC-3 prostate) | TGI (UO-31 renal) | TGI (ACHN renal) | TGI (A549 NSCLC) | TGI (SF-539 CNS) | TGI (U251 CNS) | TGI (NCI-H226 lung) | TGI (MDA-MB-231 breast) | TGI (MOLT-4 leukemia) | TGI (M14 melanoma) | TGI (SN12C renal) | TGI (IGROV1 ovarian) | TGI (SK-MEL-5 melanoma) | TGI (EKVX NSCLC) | TGI (RXF 393 renal) | TGI (SNB-75 CNS) | TGI (SK-OV-3 ovarian) | TGI (SNB-19 CNS) | TGI (NCI-H522 lung) | TGI (HS 578T breast) | TGI (OVCAR-4 ovarian) | TGI (HOP-62 NSCLC) | TGI (OVCAR-5 ovarian) | TGI (786-0 renal) | TGI (SK-MEL-2 melanoma) | TGI (UACC-62 melanoma) | TGI (SF-295 CNS) | TGI (SR leukemia) | TGI (K-562 leukemia) | TGI (OVCAR-3 ovarian) | TGI (COLO 205 colon) | TGI (TK-10 renal)
37 µM: TGI (LOX IMVI melanoma)
48 µM: TGI (DU-145 prostate)

COc1ccc(Nc2ccc([N+](=O)[O-])cc2[N+](=O)[O-])cc1CN(CCCl)CCCl
13.4 µM: TGI (SNB-75 CNS) | TGI (SW-620 colon)
4.71 µM: TGI (MALME-3M melanoma)
95.3 µM: TGI (TK-10 renal)
4.29 µM: TGI (NCI-H522 lung)
inactive: GI50 (DU-145 prostate) 3.1 µM | GI50 (T-47D breast) 2.6 µM | GI50 (A498 renal) 1.88 µM | GI50 (HCT-116 colon) 1.16 µM | GI50 (UACC-257 melanoma) 5.31 µM | GI50 (HCT-15 colon) 2.48 µM | GI50 (KM12 colon) 3.66 µM | GI50 (HL-60(TB) leukemia) 1.88 µM | GI50 (RPMI-8226 leukemia) 1.86 µM | GI50 (NCI-H460 lung) 1.82 µM | GI50 (HOP-92 NSCLC) 1.99 µM | GI50 (SK-MEL-28 melanoma) 3.24 µM | GI50 (PC-3 prostate) 2.04 µM | GI50 (HCC-2998 colon) 2.15 µM | GI50 (CCRF-CEM leukemia) 0.64 µM | GI50 (ACHN renal) 1.63 µM | GI50 (A549 NSCLC) 4.43 µM | GI50 (SF-539 CNS) 1.85 µM | GI50 (U251 CNS) 3.11 µM | GI50 (NCI-H226 lung) 3.49 µM | GI50 (MDA-MB-231 breast) 2.69 µM | GI50 (MDA-MB-435) 1.92 µM | GI50 (M14 melanoma) 2.72 µM | GI50 (SN12C renal) 2.6 µM | GI50 (SNB-75 CNS) 2.39 µM | GI50 (SK-OV-3 ovarian) 3.85 µM | GI50 (SNB-19 CNS) 3.22 µM | GI50 (NCI-H522 lung) 1.76 µM | GI50 (OVCAR-4 ovarian) 2.7 µM | GI50 (HOP-62 NSCLC) 2.97 µM | GI50 (MALME-3M melanoma) 1.96 µM | GI50 (OVCAR-5 ovarian) 2.51 µM | GI50 (SK-MEL-2 melanoma) 2.28 µM | GI50 (NCI-H23 lung) 2.04 µM | GI50 (SF-295 CNS) 2.79 µM | GI50 (K-562 leukemia) 2.47 µM | GI50 (OVCAR-8 ovarian) 3.02 µM | GI50 (OVCAR-3 ovarian) 2.36 µM | GI50 (HT29 colon) 2.44 µM | GI50 (LOX IMVI melanoma) 1.37 µM | GI50 (BT-549 breast) 1.41 µM | GI50 (SW-620 colon) 2.11 µM | GI50 (SF-268 CNS) 2.44 µM | GI50 (MCF7 breast) 1.49 µM | GI50 (CAKI-1 renal) 1.39 µM | GI50 (COLO 205 colon) 1.8 µM | GI50 (TK-10 renal) 3.76 µM
18.9 µM: TGI (K-562 leukemia)
3.75 µM: TGI (HCT-116 colon)
30 µM: TGI (U251 CNS)
> 100 µM: TGI (SN12C renal) | TGI (SK-OV-3 ovarian) | TGI (OVCAR-4 ovarian) | TGI (OVCAR-8 ovarian)
26.4 µM: TGI (T-47D breast)
79.5 µM: TGI (SR leukemia)
9.75 µM: TGI (RPMI-8226 leukemia)
6.9 µM: TGI (HCC-2998 colon)
13.3 µM: TGI (MCF7 breast)
3.51 µM: TGI (LOX IMVI melanoma)
7.26 µM: TGI (HL-60(TB) leukemia)
3.96 µM: TGI (BT-549 breast)
19.7 µM: TGI (SF-295 CNS)
5.66 µM: TGI (SK-MEL-2 melanoma)
9.94 µM: TGI (MOLT-4 leukemia)
4.85 µM: TGI (SF-539 CNS)
21.4 µM: TGI (NCI-H226 lung)
4.39 µM: TGI (MDA-MB-435)
5.94 µM: TGI (ACHN renal)
8.94 µM: TGI (OVCAR-5 ovarian)
4.33 µM: TGI (CAKI-1 renal)
19.6 µM: TGI (M14 melanoma)
5.77 µM: TGI (NCI-H23 lung)
10.5 µM: TGI (DU-145 prostate)
6.16 µM: TGI (NCI-H460 lung)
16.8 µM: TGI (SF-268 CNS)
7.84 µM: TGI (COLO 205 colon)
51 µM: TGI (KM12 colon)
active: GI50 (MOLT-4 leukemia) 0.39 µM | GI50 (SR leukemia) 0.378 µM
9.59 µM: TGI (PC-3 prostate) | TGI (HT29 colon)
20.9 µM: TGI (HOP-62 NSCLC)
25 µM: TGI (SNB-19 CNS)
7.85 µM: TGI (OVCAR-3 ovarian)
9.93 µM: TGI (HCT-15 colon)
20.7 µM: TGI (CCRF-CEM leukemia)
34.2 µM: TGI (UACC-257 melanoma)
30.7 µM: TGI (A549 NSCLC)
4.94 µM: TGI (A498 renal)
18.4 µM: TGI (SK-MEL-28 melanoma)
5.47 µM: TGI (HOP-92 NSCLC)
9.44 µM: TGI (MDA-MB-231 breast)
